Results as given in patent publication US11370769B2, “TRPC5 inhibitors and methods of using same” (BOARD OF REGENTS OF THE UNIVERSITY OF NEBRASKA, priority 2017, dated 2022).

Experiments:
TRPC4 = target: T1, TRPC4 (Homo sapiens, UniProt Q9UBN4); test: HEK293 whole-cell patch clamp recording, TRPC4 inhibition assay; assay type: cell-based; conditions: 30 μM, HEK cells expressing TRPC4, CCh 100 μM
T1 construct: expressed in transfected cells; host or cells: HEK293
T1 sequence (Q9UBN4 1-977): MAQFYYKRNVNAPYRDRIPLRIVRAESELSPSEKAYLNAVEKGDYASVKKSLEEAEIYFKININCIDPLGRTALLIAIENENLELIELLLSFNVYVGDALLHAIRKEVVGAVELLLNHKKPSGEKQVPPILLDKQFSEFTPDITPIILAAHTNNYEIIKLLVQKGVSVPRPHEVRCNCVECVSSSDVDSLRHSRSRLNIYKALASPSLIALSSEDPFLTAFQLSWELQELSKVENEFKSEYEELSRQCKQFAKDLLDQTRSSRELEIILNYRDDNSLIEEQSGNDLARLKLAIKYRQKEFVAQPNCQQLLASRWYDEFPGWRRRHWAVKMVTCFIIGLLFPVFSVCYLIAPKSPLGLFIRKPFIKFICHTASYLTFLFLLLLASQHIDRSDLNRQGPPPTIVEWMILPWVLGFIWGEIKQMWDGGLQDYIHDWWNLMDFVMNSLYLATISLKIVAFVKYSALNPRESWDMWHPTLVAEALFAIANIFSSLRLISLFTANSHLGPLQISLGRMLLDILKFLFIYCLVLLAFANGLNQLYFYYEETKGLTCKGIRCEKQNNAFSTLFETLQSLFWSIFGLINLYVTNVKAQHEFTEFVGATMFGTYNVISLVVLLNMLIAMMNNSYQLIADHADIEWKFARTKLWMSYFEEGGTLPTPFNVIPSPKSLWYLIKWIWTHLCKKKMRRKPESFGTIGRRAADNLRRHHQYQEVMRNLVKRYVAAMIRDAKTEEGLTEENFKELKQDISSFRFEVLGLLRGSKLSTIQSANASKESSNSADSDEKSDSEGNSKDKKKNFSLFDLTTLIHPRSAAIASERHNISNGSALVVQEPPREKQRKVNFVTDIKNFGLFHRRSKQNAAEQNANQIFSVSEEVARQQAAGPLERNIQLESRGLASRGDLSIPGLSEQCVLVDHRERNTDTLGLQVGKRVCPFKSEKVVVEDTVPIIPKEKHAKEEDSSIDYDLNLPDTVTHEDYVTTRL
Procedure: (§1) TRPC4, TRPC5, and TRPC6 inhibition assay: HEK293 whole-cell recordings Whole-cell patch clamp recording was performed 16 h after transfection. The bath solution contained (in mM): 140 NaCl, 5 KCl, 10 HEPES, 2 MgCl2, 2 CaCl2, 10 glucose with pH7.4 adjusted with NaOH. The intracellular solution contained (in mM): 140 KCl, 5 EGTA, 10 HEPES, 2 MgCl2 with pH7.4 adjusted with KOH. The patch pipettes were made using a two-step-protocol (P-97, Sutter Instrument). The pipette resistance was maintained between 4 to 8 MΩ. Once the whole-cell configuration was achieved, cells were clamped at a holding potential of −60 mV, and given a 50 ms ramp stimulation from −100 mV to +100 mV in every 5 s. All currents were filtered at 2 KHz (Axopatch 200B amplifier, Axon Instruments, Union City, Calif.) and digitized at 10 KHz for whole-cell recordings using Axon pCLAMP 10.4. Data were then analyzed using Clampfit 10.4 (Molecular Devices).
(§2) HEK293 cell culture and transfection: Transfection of HEK293 cells was carried out using Plus reagent (Invitrogen) and Lipofectamine (Invitrogen) according to standard protocols. For heterologous expression of TRP channels in HEK293 cells, 1 μg of TRPC5-GFP, TRPC6-GFP or TRPC4-GFP plasmids were used to transfect HEK293 cells in a 3.5 cm petri dish where cells were allowed to grow to 80% confluence. Electrophysiology was carried out after 16 h incubation.

TRPC6 = target: T2, TRPC6 (Homo sapiens, UniProt Q9Y210); test: HEK293 whole-cell patch clamp recording, TRPC6 inhibition assay; assay type: cell-based; conditions: 30 μM, HEK cells expressing TRPC6, OAG 30 μM
T2 construct: expressed in transfected cells; host or cells: HEK293
T2 sequence (Q9Y210 1-931): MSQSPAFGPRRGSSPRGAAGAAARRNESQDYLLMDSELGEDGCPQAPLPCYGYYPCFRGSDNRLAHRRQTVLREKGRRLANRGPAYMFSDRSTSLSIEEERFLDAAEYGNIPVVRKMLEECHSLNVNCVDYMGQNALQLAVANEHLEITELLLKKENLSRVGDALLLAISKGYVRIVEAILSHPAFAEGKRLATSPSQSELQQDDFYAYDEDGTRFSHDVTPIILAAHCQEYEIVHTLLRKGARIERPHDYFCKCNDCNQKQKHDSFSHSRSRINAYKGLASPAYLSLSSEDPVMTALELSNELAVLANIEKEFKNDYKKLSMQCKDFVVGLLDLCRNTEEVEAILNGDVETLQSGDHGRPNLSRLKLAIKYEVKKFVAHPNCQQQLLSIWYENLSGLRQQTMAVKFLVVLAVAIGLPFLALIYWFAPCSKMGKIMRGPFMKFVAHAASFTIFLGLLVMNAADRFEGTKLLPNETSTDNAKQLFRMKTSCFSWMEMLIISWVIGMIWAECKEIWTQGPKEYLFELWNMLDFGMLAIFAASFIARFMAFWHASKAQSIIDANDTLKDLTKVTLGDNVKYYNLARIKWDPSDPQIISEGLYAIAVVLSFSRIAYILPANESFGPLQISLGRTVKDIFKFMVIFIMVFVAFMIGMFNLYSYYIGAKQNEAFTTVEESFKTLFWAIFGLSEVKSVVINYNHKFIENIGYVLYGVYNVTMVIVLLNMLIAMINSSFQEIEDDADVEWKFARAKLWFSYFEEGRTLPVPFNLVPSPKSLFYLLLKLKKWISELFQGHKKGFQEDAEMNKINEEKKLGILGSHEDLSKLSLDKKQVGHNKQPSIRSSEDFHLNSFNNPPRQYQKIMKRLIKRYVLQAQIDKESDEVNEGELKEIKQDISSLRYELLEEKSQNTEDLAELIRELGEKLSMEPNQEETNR
Procedure: as §1, §2

## c1ccc(Cn2c(NCc3ccco3)nc3ccccc32)cc1 [AC1903]
TRPC4
  block of carbachol (CCh)-induced TRPC4 current: failed to block
TRPC6
  block of OAG-induced TRPC6 current: failed to block
